Test results reported in patent US4362728A, “Haloguanidine compounds, pharmaceutical compositions and methods of use” (ICI Americas Inc., priority 1979, dated 1982).

System: male Swiss-Webster mice
Assay: intraperitoneal toxicity observation in mice
Assay type: in vivo
Settings: 50 mg./kg. intraperitoneal in 10% w/v dimethylsulphoxide in saline; observed four hours and checked 24 hours after dosing

SMILES | toxic symptoms
CNC(=NS(C)(=O)=O)NCCCCc1csc(NC(N)=NCC(F)(F)F)n1 [Example 11, 2-[2-(2,2,2-trifluoroethyl)guanidino]-4-[4-(2-methylsulphonyl-3-methylguanidino)butyl]thiazole] | No toxic symptoms
CNC(=C[N+](=O)[O-])NCCCCc1csc(N=C(N)NCC(F)(F)F)n1 [Example 9] | No toxic symptoms
